Measured values reported in patent US20080096846A1, “Arene Ruthenium (ll) Compounds And Their Use In Cancer Therapy” (priority 2004, published 2008).

How the values were obtained:
A2780 cells = test: Cytotoxicity A2780 (1st method), cell counting; type: cell-based, human; conditions: 24 h cell exposure, cells counted on day 7
Procedure: A2780 (1st Method): A2780 cells were plated on day zero, and the complexes to be tested were added on day 3. The complex was removed on day 4 (i.e., 24 h cell exposure), and after growth in fresh medium in the absence of drug, the cells were counted on day 7. The complexes were stored in the dark at 277 K as a precaution against photochemical decomposition.

[1] = system: A2780 (human ovarian carcinoma, ECACC 93112519); test: Cytotoxicity A2780 (2nd method), sulforhodamine B; type: cell-based; conditions: 24 h exposure, then 96 h in fresh medium, SRB
Procedure: A2780 (2nd method) and A549: Cell line A2780 (human ovarian carcinoma, ECACC 93112519) was maintained in medium comprising RPMI-1640 (Sigma) with 5% Fetal Bovine Serum (Invitrogen), 2 mM L-Glutamine (Sigma) and 1% Penicillin/Streptomycin (Invitrogen), in T-75 flasks (Costar). Cells were passaged at approximately 75-90% confluence (1:8 dilution) using 0.25% Trypsin/EDTA (Invitrogen)
(§1) Both cell lines were incubated at 37° C., 5% CO2, in high humidity.
(§2) A2780 carcinoma cells were seeded (150 μL) into 96 well plates (Nunc Maxisorp) at 5000 (±10%) cells per well and incubated at 37° C., 5% CO2 in high humidity for 48 hours. A549 carcinoma cells were seeded (150 μL) into 96 well plates (Nunc Maxisorp) at 2000 (±10%) cells per well and incubated at 37° C., 5% CO2 in high humidity for 24 hours.
(§3) The compounds to be tested were solubilised by sonication in DMSO (Fisher Scientific) to provide 20 mM solutions. Compounds were serially diluted with DMSO before diluting in cell culture medium to give concentrations four-fold greater than the final concentrations required in the assay. The dilutions of compound in culture medium were added to the cell plates (50 μL) in triplicates to achieve final concentrations of 100 μM, 50 μM, 10 μM, 5 μM, 1 μM and 0.1 μM. The final DMSO concentration in each well was 0.5% (v/v). The plates were incubated for 24 hours at 37° C., 5% CO2, in high humidity
After 24 hours incubation, the cells were washed (200 μL) twice with sterile phosphate buffered Saline (Sigma) and the cell culture medium replenished (200 μL). Plates were incubated at 37° C., 5% CO2, in high humidity for 96 hours. After the incubation surviving cells were fixed by the addition of 50% (w/v) Trichloroacetic acid (50 μL) and incubated at 4° C. for 1 hour. Plates were washed three times with excess tap water and air-dried. Cells were dyed by the addition of (100 μL) 0.4% sulforhodamine B (Sigma) solution to the plates followed by five washes (200 μl) with 1% acetic acid solution to remove excess dye before air-drying. Dye was re-solubilised in (200 μL) 10 mM Tris buffer (Fisher Scientific) and the absorbance of each well read at both 565 nm and 690 nm using a BMG Fluorostar microplate reader. The reading at 690 nm was subtracted from the 565 nm reading, and the IC50 values determined by plotting the corrected absorbance value Vs. the compound concentration in the wells (XLfit version 4.0, ID Business Solutions Ltd). These are shown below in table 1

[2] = system: A549 (human lung carcinoma, ECACC 86012804); test: Cytotoxicity A549, sulforhodamine B; type: cell-based; conditions: 24 h exposure, then 96 h in fresh medium, SRB
Procedure: Cell Line A549 (human lung carcinoma, ECACC 86012804) was maintained in medium comprising DMEM (Sigma) with 10% Fetal Bovine Serum (Invitrogen), 2 mM L-Glutamine (Invitrogen) and 1% Penicillin/Streptomycin (Invitrogen), in T-75 flasks (Costar). Cells were passaged at approximately 70-90% confluence (1:8 dilution) using 0.25% Trypsin/EDTA (Invitrogen).
as §1, §2, §3
After 24 hours incubation, the cells were washed (200 μL) twice with sterile phosphate buffered Saline (Sigma) and the cell culture medium replenished (200 μL). Plates were incubated at 37° C., 5% CO2, in high humidity for 96 hours. […] Dye was re-solubilised in (200 μL) 10 mM Tris buffer (Fisher Scientific) and the absorbance of each well read at both 565 nm and 690 nm using a BMG Fluorostar microplate reader. The reading at 690 nm was subtracted from the 565 nm reading, and the IC50 values determined by plotting the corrected absorbance value Vs. the compound concentration in the wells (XLfit version 4.0, ID Business Solutions Ltd). […]

[3] = Hydrolysis kinetic studies by UV-Vis spectroscopy; type: physicochemical; parameters: key: —: no hydrolysis observed by UV-VIS; conditions: 298 K, methanol stock diluted with water
Procedure: Ultraviolet and Visible (UV-Vis) Spectroscopy: A Perkin-Elmer Lambda-16 UV-Vis spectrophotometer was used with 1-cm path-length quartz cuvettes (0.5 mL) and a PTP1 Peltier temperature controller. Spectra were processed using UVWinlab software for Windows' 95.
Kinetic Studies: Aliquots of stock solutions of the complexes to be tested (4-10 mM) in methanol were diluted to 500 μL with water, and the absorbance at selected wavelengths (determined by hydrolysis in an 19:1 mixture of water and methanol—see table 1 (λ)) was then recorded at 6 to 20 second intervals depending on the hydrolysis rate of each complex at 298 K. The hydrolysis rate constant kH2O for each complex was determined by computer fit of the absorbance/time data for each complex to the first-order rate equation (eq. 1), A=C0+C1e^−kt (1) where C0 and C1 are computer-fitted constants, and A is the absorbance corresponding to time t, and the results are reported in table 1 as the half life (t1/2). Cytoxicity Studies

In the case of “[(η^6-C6(CH3)6)Ru(en)(3,5-dichloropyridine)][PF6]2 [Compound 6]”, the IC50 (A2780 cells) is reported as 23 µM and the IC50 [1] is reported as 18 µM.

With `F[P-](F)(F)(F)(F)F.NCCN.[Cl][Ru+].c1ccc(-c2ccccc2)cc1` [Compound C1, [(η^6-C6H5C6H5)Ru(en)Cl][PF6], reference compound] the IC50 (A2780 cells) was 8 µM, the IC50 [1] was 6.5 µM and the IC50 [2] was 11 µM.

“[(η^6-C6(CH3)6)Ru(en)(p-cyanopyridine)][PF6]2 [Compound 8]” showed an IC50 (A2780 cells) of 6 µM.

For “[(η^6-C6(CH3)6)Ru(en)(pyridine)][PF6]2 [Compound 2]”, the “t1/2 (hydrolysis), dash with footnote a” value [3] was “—^a”.

For “[(η^6-C6(CH3)6)Ru(en)(SPh)][PF6] [Compound 4]”, the “t1/2 (hydrolysis), dash with footnote a” value [3] was “—^a”, the IC50 (A2780 cells) was 23 µM and the IC50 [1] was 23 µM. It also gave an IC50 [2] of 38 µM.

With “[(η^6-C6(CH3)6)Ru(en)(SCN)][PF6]2 [Compound 3]” the IC50 [1] was 24 µM.

With “[(η^6-C6(CH3)6)Ru(en)(3-methylpyridine)][PF6]2 [Compound 9]” the “t1/2 (hydrolysis), dash with footnote a” value [3] was “—^a”, the IC50 (A2780 cells) was 50 µM and the IC50 [1] was 50 µM.

`Cc1c(C)c(C)c(C)c(C)c1C.F[P-](F)(F)(F)(F)F.NCCN.[Cl][Ru+]` [Compound C2, [(η^6-C6(CH3)6)Ru(en)Cl][PF6], reference compound] gave an IC50 (A2780 cells) of 9 µM.

“[(η^6-C6H5C6H5)Ru(en)N3][PF6] [Compound 1]” gave an IC50 (A2780 cells) of 4 µM, an IC50 [1] of 14 µM and an IC50 [2] of 8.5 µM.
